Starred links: 1 amine or outer side, 2 acyl side, 3 side chain; linkers in the order of their positions; H or OH if unused. Positions of bridges follow the written chain, without caps; N, C: chain ends. Non-standard residues stand in square brackets, D forms with d. Residues, ends and D or L forms follow the SMILES beside them. *: point of attachment. NMeF = CN[C@@H](Cc1ccccc1)C(=O)O; NMeI = CC[C@H](C)[C@H](NC)C(=O)O; NMeT = CN[C@H](C(=O)O)[C@@H](C)O; hPhe = N[C@@H](CCc1ccccc1)C(=O)O; NMeβAla = CN(CCC(=O)[*:2])[*:1]; NMeD = CN[C@@H](CC(=O)O)C(=O)O; NMeL = CN[C@@H](CC(C)C)C(=O)O; dNMeV = CN[C@@H](C(=O)O)C(C)C; NMeV = CN[C@H](C(=O)O)C(C)C; NMeAbu = CC[C@H](NC)C(=O)O; NMeA = CN[C@@H](C)C(=O)O; Piperidide = C1CCN(*)CC1; Abu = CC[C@H](N)C(=O)O; NBuGly = CCCCNCC(=O)O; βAla = NCCC(=O)O; Sar = CNCC(=O)O; tBu = CC(C)(C)*

In one data set the test system is Caco-2 cells. Kind of data set: Membrane permeability test using Caco-2 cells with preincubation. The class given is in vitro ADME. Particulars: Caco-2 cells, preincubation 20 to 24 hours; apical FaSSIF/HBSS 1% DMSO pH 6.0, basal HBSS 4% BSA pH 7.4; basal sample at 180 minutes.
Assay in data set [1]: as above
The class given is in vitro ADME. The settings on record: Caco-2; preincubation 20 to 24 hours; Apical FaSSIF/HBSS pH 6.0, Basal HBSS 4% BSA pH 7.4; 180 minutes; read-out: Caco2 Papp.

Data set [2] is described as follows: Metabolic stability test: liver microsomal stability assay. Particulars: mouse liver microsomes 0.5 mg protein/mL, compound 1 µM; for microsomal CLint at 1 µM: male, pH 7.4, presence of NADPH, read-out: Mouse Hepatic Microsome CLh,int NADPH(+); for Mouse Hepatic Microsome CLh,int NADPH(-): absence of NADPH. In kind it is in vitro ADME, mouse.

With `CCCCN1CC(=O)N(C)[C@@H](CC(C)C)C(=O)N[C@@H]([C@@H](C)O)C(=O)N(C)[C@@H](C)C(=O)N2CCC[C@H]2C(=O)N[C@@H](CCc2ccccc2)C(=O)N[C@@H]([C@@H](C)CC)C(=O)N(C)[C@H](C(=O)N2CCCCC2)CC(=O)N(C)[C@@H](CC(C)C)C(=O)N[C@@H](COC(C)(C)C)C(=O)N(C)[C@@H](C(C)C)C(=O)N[C@@H]([C@@H](C)CC)C(=O)N2CCC[C@H]2C(=O)N[C@@H](C(C)C)C1=O` [pd087] ([NMeL]S(tBu)[NMeV]IPV[NBuGly][NMeL]T[NMeA]P[hPhe]I[NMeD]-Piperidide; lactam N-14), the “Caco2 Papp (10^-6 cm/sec)” value in the data set with Caco-2 cells is on record as <0.07 10^-6 cm/sec. The Papp A→B in data set [1] is < 0.07 ×10⁻⁶ cm/s. Besides, in data set [2], the microsomal CLint at 1 µM was 31.8 µL/min/mg and the “Mouse Hepatic Microsome CLh,int NADPH(-)” value came to 29.0 µL/min/mg Protein.

Regarding `CC[C@@H]1NC(=O)[C@H](C(C)C)N(C)C(=O)[C@H](C(C)C)NC(=O)[C@H](C)N(C)C(=O)CCN(C)C(=O)[C@H](CCc2ccccc2)NC(=O)[C@H](CC(C)C)N(C)C(=O)[C@H]([C@@H](C)CC)NC(=O)CN(C)C(=O)C[C@@H](C(=O)N2CCCCC2)N(C)C(=O)[C@H](CC(C)C)NC(=O)[C@H](CC(C)C)N(C)C(=O)[C@H]([C@@H](C)O)NC(=O)[C@H](Cc2ccccc2)N(C)C1=O` [pd088] ([Sar]I[NMeL][hPhe][NMeβAla][NMeA]V[NMeV][Abu][NMeF]T[NMeL]L[NMeD]-Piperidide; lactam N-14), the “Caco2 Papp (10^-6 cm/sec)” value in the data set on Caco-2 cells is 0.11 10^-6 cm/sec. The Papp A→B in data set [1] was 0.11 ×10⁻⁶ cm/s. Also, in data set [2], the microsomal CLint at 1 µM worked out at 20.9 µL/min/mg and the “Mouse Hepatic Microsome CLh,int NADPH(-)” value worked out at 24.2 µL/min/mg Protein.

Regarding `CC[C@@H]1NC(=O)[C@H](Cc2ccccc2)N(C)C(=O)[C@H](COC(C)(C)C)NC(=O)[C@H](CC(C)C)N(C)C(=O)[C@H](C)N(C)C(=O)[C@H]([C@@H](C)O)NC(=O)[C@H](CC(C)C)N(C)C(=O)[C@H](C(C)C)N(C)C(=O)[C@H](CCc2ccccc2)NC(=O)[C@H](CC(C)C)N(C)C(=O)[C@@H](C(C)C)N(C)C(=O)C[C@@H](C(=O)N2CCCCC2)N(C)C(=O)[C@H](CC(C)C)NC(=O)[C@H](C(C)C)N(C)C1=O` [pd089] ([dNMeV][NMeL][hPhe][NMeV][NMeL]T[NMeA][NMeL]S(tBu)[NMeF][Abu][NMeV]L[NMeD]-Piperidide; lactam N-14), the “Caco2 Papp (10^-6 cm/sec)” value in the data set with Caco-2 cells is listed as <0.11 10^-6 cm/sec. Also, in data set [1], the Papp A→B is < 0.11 ×10⁻⁶ cm/s. In addition, in data set [2], the microsomal CLint at 1 µM came out at 29 µL/min/mg and the “Mouse Hepatic Microsome CLh,int NADPH(-)” value is reported as 29.8 µL/min/mg Protein.

As for `CC[C@@H]1NC(=O)[C@H](CC(C)C)N(C)C(=O)[C@H]([C@@H](C)O)NC(=O)[C@H](C(C)C)N(C)C(=O)[C@H](C)NC(=O)[C@H](Cc2ccccc2)N(C)C(=O)[C@@H](C(C)C)NC(=O)C[C@@H](C(=O)N2CCCCC2)N(C)C(=O)CN(C)C(=O)[C@H](Cc2ccccc2)N(C)C(=O)[C@H](C)N(C)C(=O)[C@H](COC(C)(C)C)NC(=O)[C@H](CC(C)C)N(C)C(=O)CN(C)C1=O` [pd090] ([dV][NMeF]A[NMeV]T[NMeL][Abu][Sar][NMeL]S(tBu)[NMeA][NMeF][Sar][NMeD]-Piperidide; lactam N-14), the “Caco2 Papp (10^-6 cm/sec)” value in the data set with Caco-2 cells is reported as <0.12 10^-6 cm/sec. The Papp A→B in data set [1] is < 0.12 ×10⁻⁶ cm/s. In data set [2], the microsomal CLint at 1 µM was determined as 45 µL/min/mg and the “Mouse Hepatic Microsome CLh,int NADPH(-)” value is reported as 23.9 µL/min/mg Protein.

For `CC[C@@H]1NC(=O)[C@H](Cc2ccccc2)N(C)C(=O)[C@H](COC(C)(C)C)NC(=O)[C@H](CC(C)C)N(C)C(=O)[C@H](CC(C)C)NC(=O)[C@H](C)N(C)C(=O)C[C@@H](C(=O)N2CCCCC2)N(C)C(=O)[C@H](CC(C)C)N(C)C(=O)[C@H]([C@@H](C)CC)NC(=O)[C@H](Cc2ccccc2)N(C)C(=O)[C@H]([C@@H](C)O)N(C)C(=O)[C@H](CC)N(C)C(=O)[C@H](CC(C)C)NC(=O)CN(C)C1=O` [pd091] ([NMeA]L[NMeL]S(tBu)[NMeF][Abu][Sar]L[NMeAbu][NMeT][NMeF]I[NMeL][NMeD]-Piperidide; lactam N-14), the “Caco2 Papp (10^-6 cm/sec)” value with Caco-2 cells was 0.11 10^-6 cm/sec. For the same molecule, the Papp A→B in data set [1] turned out to be 0.11 ×10⁻⁶ cm/s. Besides, in data set [2], the microsomal CLint at 1 µM was 39.4 µL/min/mg and the “Mouse Hepatic Microsome CLh,int NADPH(-)” value stood at 36.1 µL/min/mg Protein.

For the molecule `CC[C@H](C)[C@@H]1NC(=O)CN(C)C(=O)C[C@@H](C(=O)N2CCCCC2)N(C)C(=O)[C@H](C(C)C)NC(=O)[C@H](Cc2ccccc2)N(C)C(=O)[C@H](CC(C)C)N(C)C(=O)[C@H]([C@@H](C)O)NC(=O)[C@H](CC(C)C)N(C)C(=O)[C@H](CC(C)C)NC(=O)[C@H](C(C)C)N(C)C(=O)[C@H](C)N(C)C(=O)[C@H](CC(C)C)N(C)C(=O)[C@H](CCc2ccccc2)NC(=O)[C@H](CC(C)C)N(C)C1=O` [pd092] ([Sar]I[NMeL][hPhe][NMeL][NMeA][NMeV]L[NMeL]T[NMeL][NMeF]V[NMeD]-Piperidide; lactam N-14), the “Caco2 Papp (10^-6 cm/sec)” value in the data set on Caco-2 cells was 0.09 10^-6 cm/sec. Also, the Papp A→B in data set [1] stood at 0.09 ×10⁻⁶ cm/s. For the same molecule, in data set [2], the microsomal CLint at 1 µM came to 22 µL/min/mg and the “Mouse Hepatic Microsome CLh,int NADPH(-)” value came out at 26.3 µL/min/mg Protein.

Consider `CC[C@H]1C(=O)N(C)[C@@H](C(C)C)C(=O)N[C@@H](CC(C)C)C(=O)N(C)[C@H](C(=O)N2CCCCC2)CC(=O)N(C)[C@H](C(C)C)C(=O)N(C)[C@@H](CC(C)C)C(=O)N[C@@H](CCc2ccccc2)C(=O)N(C)[C@@H](C(C)C)C(=O)N(C)[C@@H](CC(C)C)C(=O)N[C@@H]([C@@H](C)O)C(=O)N(C)[C@@H](C)C(=O)N(C)[C@@H](CC(C)C)C(=O)N[C@@H](COC(C)(C)C)C(=O)N(C)[C@@H](Cc2ccccc2)C(=O)N1C` [pd093] ([dNMeV][NMeL][hPhe][NMeV][NMeL]T[NMeA][NMeL]S(tBu)[NMeF][NMeAbu][NMeV]L[NMeD]-Piperidide; lactam N-14), for which the “Caco2 Papp (10^-6 cm/sec)” value in the data set on Caco-2 cells is <0.14 10^-6 cm/sec. In addition, in data set [1], the Papp A→B was < 0.14 ×10⁻⁶ cm/s. Further, in data set [2], the microsomal CLint at 1 µM was found to be 26.8 µL/min/mg and the “Mouse Hepatic Microsome CLh,int NADPH(-)” value was 20.4 µL/min/mg Protein.

Consider `CC[C@H]1C(=O)N(C)CC(=O)N(C)[C@@H](CC(C)C)C(=O)N[C@@H](COC(C)(C)C)C(=O)N(C)[C@@H](C)C(=O)N(C)[C@@H](Cc2ccccc2)C(=O)N(C)CC(=O)N(C)[C@H](C(=O)N2CCCCC2)CC(=O)N[C@H](C(C)C)C(=O)N(C)[C@@H](Cc2ccccc2)C(=O)NCCC(=O)N(C)[C@@H](C(C)C)C(=O)N[C@@H]([C@@H](C)O)C(=O)N(C)[C@@H](CC(C)C)C(=O)N1C` [pd094] ([dV][NMeF][βAla][NMeV]T[NMeL][NMeAbu][Sar][NMeL]S(tBu)[NMeA][NMeF][Sar][NMeD]-Piperidide; lactam N-14), for which the “Caco2 Papp (10^-6 cm/sec)” value in the data set with Caco-2 cells is reported as <0.13 10^-6 cm/sec. In addition, in data set [1], the Papp A→B was < 0.13 ×10⁻⁶ cm/s. Besides, in data set [2], the microsomal CLint at 1 µM came out at 22.5 µL/min/mg and the “Mouse Hepatic Microsome CLh,int NADPH(-)” value is listed as 16.7 µL/min/mg Protein.

Consider `CC[C@H](C)[C@@H]1NC(=O)[C@H](Cc2ccccc2)N(C)C(=O)[C@H]([C@@H](C)O)N(C)C(=O)[C@H]([C@@H](C)CC)N(C)C(=O)[C@H](CC(C)C)NC(=O)CN(C)C(=O)[C@H](CC)N(C)C(=O)[C@H](Cc2ccccc2)N(C)C(=O)[C@H](COC(C)(C)C)NC(=O)[C@H](CC(C)C)N(C)C(=O)[C@H](CC(C)C)NC(=O)[C@H](C)N(C)C(=O)C[C@@H](C(=O)N2CCCCC2)N(C)C(=O)[C@H](CC(C)C)N(C)C1=O` [pd095] ([NMeA]L[NMeL]S(tBu)[NMeF][NMeAbu][Sar]L[NMeI][NMeT][NMeF]I[NMeL][NMeD]-Piperidide; lactam N-14), for which the “Caco2 Papp (10^-6 cm/sec)” value in the data set on Caco-2 cells is listed as <0.10 10^-6 cm/sec. Besides, the Papp A→B in data set [1] is < 0.1 ×10⁻⁶ cm/s. For the same molecule, in data set [2], the microsomal CLint at 1 µM worked out at 25.6 µL/min/mg and the “Mouse Hepatic Microsome CLh,int NADPH(-)” value is 29.2 µL/min/mg Protein.

Values taken from patent publication EP4768499A1, “MACROCYCLIC PEPTIDE COMPOUND HAVING CELL MEMBRANE PERMEABILITY AND METABOLIC STABILITY, AND LIBRARY CONTAINING SAME” (Chugai Seiyaku Kabushiki Kaisha, priority 2023, dated 2025).
